In patent publication US20220062240A1, “METHODS OF TREATING CANCER USING A CLK INHIBITOR” (BioSplice Therapeutics, Inc., priority 2018, published 2022):
Read-outs that look alike come from different tables or passages of the source.

Experiments:
[1] = test system: lung cancer (4 cell lines); experiment: CellTiter-Glo Viability Assay, lung cancer; assay type: cell-based; settings: Homo sapiens
[2] = test system: colorectal cancer (6 cell lines); experiment: CellTiter-Glo Viability Assay, colorectal cancer; assay type: cell-based; settings: Homo sapiens
[3] = test system: pancreatic cancer (8 cell lines); experiment: CellTiter-Glo Viability Assay, pancreatic cancer; assay type: cell-based; settings: Homo sapiens
[4] = test system: ovarian cancer (4 cell lines); experiment: CellTiter-Glo Viability Assay, ovarian cancer; assay type: cell-based; settings: Homo sapiens
[5] = test system: all 50 cell lines; experiment: CellTiter-Glo Viability Assay, average across all cell lines; assay type: cell-based; settings: Homo sapiens, read-out: average EC50 for inhibition of cancer cell proliferation
Procedure, shortened: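 Cells were plated at 300-3,000 per well in their own media, then treated with compound in duplicate, with DMSO wells as controls. After four days at 37° C and 5% CO2, CellTiter-Glo was added, and luminescence was read. EC50s were fitted.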

[6] = test system: liver cancer (3 cell lines); experiment: CellTiter-Glo Viability Assay, liver cancer; assay type: cell-based; settings: Homo sapiens
[7] = test system: haematopoietic & lymphoid tumors (13 cell lines); experiment: CellTiter-Glo Viability Assay, haematopoietic & lymphoid tumors; assay type: cell-based; settings: Homo sapiens
[8] = test system: HCC1599; experiment: CellTiter-Glo Viability Assay, breast cancer; assay type: cell-based; settings: Homo sapiens, HCC1599, 96 h
[9] = test system: T47D; experiment: CellTiter-Glo Viability Assay, breast cancer; assay type: cell-based; settings: Homo sapiens, 96 h
[10] = test system: MDA-MB-231-Luc; experiment: CellTiter-Glo Viability Assay, breast cancer; assay type: cell-based; settings: Homo sapiens, 96 h
[11] = test system: CAMA1; experiment: CellTiter-Glo Viability Assay, breast cancer; assay type: cell-based; settings: Homo sapiens, CAMA-1, 96 h
[12] = test system: BT-549; experiment: CellTiter-Glo Viability Assay, breast cancer; assay type: cell-based; settings: Homo sapiens, BT-549, 96 h
[13] = test system: ZR-75-1; experiment: CellTiter-Glo Viability Assay, breast cancer; assay type: cell-based; settings: Homo sapiens, ZR-75-1, 96 h
[14] = test system: MCF7; experiment: CellTiter-Glo Viability Assay, breast cancer; assay type: cell-based; settings: Homo sapiens, MCF7, 96 h
[15] = test system: DU4475; experiment: CellTiter-Glo Viability Assay, breast cancer; assay type: cell-based; settings: Homo sapiens, DU-4475, 96 h
[16] = target: CLK3 (Homo sapiens, UniProt P49761); experiment: CLK3 kinase activity assay (Z-lyte, Ser/Thr 18 peptide)
Chain of CLK3 (P49761 whole entry): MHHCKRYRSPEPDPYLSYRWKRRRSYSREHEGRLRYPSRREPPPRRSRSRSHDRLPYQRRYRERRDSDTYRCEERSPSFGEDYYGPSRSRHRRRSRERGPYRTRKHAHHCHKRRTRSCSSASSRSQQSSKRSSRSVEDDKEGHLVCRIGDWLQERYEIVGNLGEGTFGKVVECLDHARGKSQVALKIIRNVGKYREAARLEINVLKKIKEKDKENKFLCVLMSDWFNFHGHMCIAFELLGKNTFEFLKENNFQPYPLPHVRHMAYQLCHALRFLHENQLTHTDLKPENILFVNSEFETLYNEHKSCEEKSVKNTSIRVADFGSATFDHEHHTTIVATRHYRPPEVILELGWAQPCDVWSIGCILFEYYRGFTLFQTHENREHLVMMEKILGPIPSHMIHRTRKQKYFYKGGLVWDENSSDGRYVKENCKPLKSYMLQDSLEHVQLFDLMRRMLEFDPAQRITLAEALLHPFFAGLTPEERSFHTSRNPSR

[17] = test system: prostate cancer (5 cell lines); experiment: CellTiter-Glo Viability Assay, prostate cancer; assay type: cell-based; settings: Homo sapiens

`CN1CCN(C(=O)C(C)(C)c2ccc(C(=O)Nc3cn4cc(-c5ccncc5)ccc4n3)cc2)CC1` [Compound 27] was tested, and the EC50 ([1]; A-427, read-out: Lung cancer, EC50 (μM) A427) was 3.08 µM, the EC50 ([1]; HCC78, read-out: Lung cancer, EC50 (μM) HCC-78) was 3.72 µM and the EC50 ([1]; NCI-H460, read-out: Lung cancer, EC50 (μM) NCI-H460) was 3.54 µM. The EC50 ([1]; NCI-H522, read-out: Lung cancer, EC50 (μM) NCI-H522) was 1.99 µM, the EC50 ([2]; DLD-1, read-out: Colorectal cancer, EC50 (μM) DLD-1) was 1.65 µM and the EC50 ([2]; HCT-116, read-out: Colorectal cancer, EC50 (μM) HCT116) was 1.08 µM. It also gave an EC50 ([2]; HT-29, read-out: Colorectal cancer, EC50 (μM) HT29) of 2.38 µM, an EC50 ([2]; SW48, read-out: Colorectal cancer, EC50 (μM) SW48) of 0.675 µM and an EC50 ([2]; SW480, read-out: Colorectal cancer, EC50 (μM) SW480) of 1.08 µM. For the same compound, the EC50 ([2]; SW-620, read-out: Colorectal cancer, EC50 (μM) SW620) was 0.97 µM, the EC50 ([3]; BXPC-3, read-out: Pancreatic cancer, EC50 BxPC3) was 4610 nM and the EC50 ([3]; CAPAN-1, read-out: Pancreatic cancer, EC50 Capan1) was 3470 nM. It also gave an EC50 ([3]; Capan-2, read-out: Pancreatic cancer, EC50 Capan2) of 3770 nM, an EC50 ([3]; MIA PaCa-2, read-out: Pancreatic cancer, EC50 MIA PaCa-2) of 1440 nM and an EC50 ([3]; PANC-1, read-out: Pancreatic cancer, EC50 PANC-1) of 4640 nM. It also gave an EC50 ([3]; Panc 05.04, read-out: Pancreatic cancer, EC50 PANC 05.04) of 3640 nM, an EC50 ([3]; read-out: Pancreatic cancer, EC50 UPAFII) of 1870 nM and an EC50 ([4]; OV-90, read-out: Ovarian cancer, EC50 (μM) OV-90) of 3.87 µM. The EC50 ([4]; OVCAR-3, read-out: Ovarian cancer, EC50 (μM) OVCAR-3) was 1.31 µM, the EC50 ([4]; PA-1, read-out: Ovarian cancer, EC50 (μM) PA1) was 1.58 µM and the EC50 ([4]; TOV112D, read-out: Ovarian cancer, EC50 (μM) TOV-112D) was 2.32 µM. The EC50 [5] was 2840 nM, the EC50 ([6]; HepG2, read-out: Liver cancer, EC50 HEPG2) was 3340 nM and the EC50 ([6]; PLC-PRF-5, read-out: Liver cancer, EC50 PLC/PRF/5) was 4020 nM. It also gave an EC50 ([6]; SNU-398, read-out: Liver cancer, EC50 SNU398) of 917 nM, an EC50 ([7]; DND41, read-out: Haematopoietic & Lymphoid tumors, EC50 (μM) DND-41) of 1.78 µM and an EC50 ([7]; HL-60, read-out: Haematopoietic & Lymphoid tumors, EC50 (μM) HL-60) of 4.98 µM. The EC50 ([7]; JM1, read-out: Haematopoietic & Lymphoid tumors, EC50 (μM) JM1) was 0.982 µM, the EC50 ([7]; JeKo-1, read-out: Haematopoietic & Lymphoid tumors, EC50 (μM) JeKo-1) was 1.22 µM and the EC50 ([7]; Jurkat, read-out: Haematopoietic & Lymphoid tumors, EC50 (μM) JURKAT, Clone E6-1) was 3.85 µM. For the same compound, the EC50 ([7]; Kasumi 1, read-out: Haematopoietic & Lymphoid tumors, EC50 (μM) KASUMI-1) was 2.1 µM, the EC50 ([7]; MOLT-4, read-out: Haematopoietic & Lymphoid tumors, EC50 (μM) MOLT-4) was 2.39 µM and the EC50 ([7]; MV4-11, read-out: Haematopoietic & Lymphoid tumors, EC50 (μM) MV-4-11) was 0.275 µM. The EC50 ([7]; Rec1, read-out: Haematopoietic & Lymphoid tumors, EC50 (μM) REC-1) was 1 µM, the EC50 ([7]; SU-DHL-4, read-out: Haematopoietic & Lymphoid tumors, EC50 (μM) SUDHL4) was 2.54 µM and the EC50 ([7]; TF-1, read-out: Haematopoietic & Lymphoid tumors, EC50 (μM) TF-1) was 3.41 µM. The EC50 ([7]; Toledo, read-out: Haematopoietic & Lymphoid tumors, EC50 (μM) TOLEDO) was 1.1 µM, the EC50 ([7]; read-out: Haematopoietic & Lymphoid tumors, EC50 (μM) Loucy) was 1.49 µM and the EC50 [8] was 8040 nM. For the same compound, the EC50 [9] was 4100 nM, the EC50 [10] was 3650 nM and the EC50 [11] was 4250 nM. For the same compound, the EC50 [12] was 3610 nM, the EC50 [13] was 3910 nM and the EC50 [14] was 3970 nM. The EC50 [15] was 1990 nM, the EC50 [16] was 35 nM and the EC50 ([17]; 22Rv1, read-out: Prostate cancer EC50 22Rv1) was 2910 nM. It also gave an EC50 ([17]; DU-145, read-out: Prostate cancer EC50 Du-145) of 3380 nM, an EC50 ([17]; LNCaP-Clone-FGC, read-out: Prostate cancer EC50 LNCap clone FGC) of 4180 nM and an EC50 ([17]; PC-3, read-out: Prostate cancer EC50 PC3) of 2580 nM. It also gave an EC50 ([17]; VCaP, read-out: Prostate cancer EC50 VCaP (Sigma)) of 7470 nM.
